From ChEMBL document CHEMBL2157932, “Synthesis and pharmacological evaluation of carbamic acid 1-phenyl-3-(4-phenyl-piperazine-1-yl)-propyl ester derivatives as new analgesic agents” (Bioorg Med Chem Lett, 2012)

Assays:
[1] = Half life in rat liver microsomes by LC/MS/MS; type: ADME, Microsome
[2] = tested on: Mus musculus; test: Analgesic activity in ip dosed mouse assessed as inhibition of acetic acid-induced writhing response administered 0.5 to 1 hr before acetic acid challenge; type: functional
[3] = molecular target: 5-hydroxytryptamine receptor 2A (Rattus norvegicus, UniProt P14842); test: Displacement of [3H]-ketanserin from 5HT2A receptor in rat cortical membrane; type: cell membranes
Sequence of 5-hydroxytryptamine receptor 2A (P14842 whole entry): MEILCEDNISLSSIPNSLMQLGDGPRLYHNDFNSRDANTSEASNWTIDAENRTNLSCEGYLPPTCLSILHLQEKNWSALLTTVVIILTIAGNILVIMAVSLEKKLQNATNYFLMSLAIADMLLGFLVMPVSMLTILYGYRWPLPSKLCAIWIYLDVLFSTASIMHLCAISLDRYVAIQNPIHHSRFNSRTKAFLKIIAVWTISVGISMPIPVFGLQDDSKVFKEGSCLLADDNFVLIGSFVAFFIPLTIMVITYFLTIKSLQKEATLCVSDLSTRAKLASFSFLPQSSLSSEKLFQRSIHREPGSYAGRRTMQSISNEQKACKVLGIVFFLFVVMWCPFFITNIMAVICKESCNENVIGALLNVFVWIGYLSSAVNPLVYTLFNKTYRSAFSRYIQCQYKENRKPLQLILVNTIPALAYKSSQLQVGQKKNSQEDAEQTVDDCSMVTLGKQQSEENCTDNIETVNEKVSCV

[4] = molecular target: T1, 5-hydroxytryptamine receptor 1A (Rattus norvegicus, UniProt P19327); test: Displacement of [3H]-8-OH-DPAT from 5HT1A receptor in rat hippocampus; type: tissue-based
T1 sequence (P19327 whole entry): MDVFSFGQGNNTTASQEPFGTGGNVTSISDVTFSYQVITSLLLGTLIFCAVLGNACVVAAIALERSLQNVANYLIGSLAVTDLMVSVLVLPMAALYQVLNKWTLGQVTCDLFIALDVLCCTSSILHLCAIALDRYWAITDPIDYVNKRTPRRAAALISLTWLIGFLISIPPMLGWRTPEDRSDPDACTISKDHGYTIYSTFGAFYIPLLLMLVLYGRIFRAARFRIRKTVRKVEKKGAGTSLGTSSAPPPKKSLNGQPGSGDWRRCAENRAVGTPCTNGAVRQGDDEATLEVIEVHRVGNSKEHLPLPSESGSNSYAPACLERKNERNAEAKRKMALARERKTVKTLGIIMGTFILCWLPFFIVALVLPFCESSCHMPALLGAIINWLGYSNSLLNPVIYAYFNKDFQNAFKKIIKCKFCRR

[5] = Half life in human liver microsomes by LC/MS/MS; type: ADME, Microsome
[6] = tested on: Mus musculus; test: Analgesic activity in mouse assessed as inhibition of acetic acid-induced writhing response at 10 mg/kg, ip administered 0.5 to 1 hr before acetic acid challenge; type: functional; settings: route intraperitoneal
[7] = tested on: Mus musculus; test: Analgesic activity in mouse assessed as inhibition of acetic acid-induced writhing response at 10 mg/kg, po administered 0.5 to 1 hr before acetic acid challenge; type: functional
[8] = tested on: Mus musculus; test: Neurotoxicity in mouse at 60 mg/kg, ip by rotarod test; type: toxicity, organism-based; set-up: dose 60 mg/kg, route intraperitoneal; settings: in vivo
[9] = tested on: Mus musculus; test: Neurotoxicity in mouse at 100 mg/kg, ip by rotarod test; type: toxicity, organism-based; set-up: dose 100 mg/kg, route intraperitoneal; settings: in vivo
[10] = tested on: Mus musculus; test: Neurotoxicity in mouse at 50 mg/kg, ip by rotarod test; type: toxicity, organism-based; set-up: dose 50 mg/kg, route intraperitoneal; settings: in vivo
[11] = molecular target: T2, 5-hydroxytryptamine receptor 1A (Rattus norvegicus) (UniProt P19327); test: Displacement of [3H]-8-OH-DPAT from 5HT1A receptor in rat hippocampus at 1 uM; type: tissue-based
T2 sequence (whole entry): T1 sequence (P19327 whole entry)

[12] = Neurotoxicity in po dosed mouse by rotarod test; type: toxicity, organism-based; settings: in vivo
[13] = molecular target: 5-hydroxytryptamine receptor 2A (Rattus norvegicus) (UniProt P14842); test: Displacement of [3H]-ketanserin from 5HT2A receptor in rat cortical membrane at 1 uM; type: cell membranes
Sequence of 5-hydroxytryptamine receptor 2A (Rattus norvegicus) (P14842 whole entry): as the sequence (P14842 whole entry) above

[14] = Neurotoxicity in ip dosed mouse by rotarod test; type: toxicity, organism-based; settings: in vivo
[15] = tested on: Mus musculus; test: Neurotoxicity in mouse at 30 mg/kg, ip by rotarod test; type: toxicity, organism-based; set-up: dose 30 mg/kg, route intraperitoneal; settings: in vivo

NC(=O)O[C@H](CCN1CCN(c2ccccc2)CC1)c1ccccc1
half-life [1]: 8 min | ED50 [2]: 0.18 mg/kg | IC50 [3]: 62 nM | IC50 [4]: 534 nM | half-life [5]: 62 min

NC(=O)O[C@@H](CCN1CCN(c2ccccc2)CC1)c1ccccc1
IC50 [3]: 1020 nM | IC50 [4]: 772 nM | inhibition in vivo at 10 mg/kg [6]: 87.8%

COc1ccc(C(CCN2CCN(c3ccc(OC)cc3)CC2)OC(N)=O)cc1 (centres undefined)
inhibition in vivo at 10 mg/kg [7]: 53%

NC(=O)OC(CCN1CCN(c2cccc(Cl)c2)CC1)c1ccccc1 (centres undefined)
ED50 [2]: 0.57 mg/kg | Activity [8]: Toxic

NC(=O)OC(CCN1CCN(c2cccc(C(F)(F)F)c2)CC1)c1ccccc1 (centres undefined)
inhibition in vivo at 10 mg/kg [6]: 14.6% | Activity [9]: Toxic

O=C(CCN1CCN(c2ccccc2)CC1)c1ccccc1
IC50 [3]: 1070 nM | IC50 [4]: 47.5 nM | inhibition in vivo at 10 mg/kg [6]: 37.2%

O[C@H](CCN1CCN(c2ccccc2)CC1)c1ccccc1
IC50 [3]: 452 nM | IC50 [4]: 174 nM | inhibition in vivo at 10 mg/kg [6]: 70.1%

O[C@@H](CCN1CCN(c2ccccc2)CC1)c1ccccc1
IC50 [3]: 289 nM | IC50 [4]: 495 nM | inhibition in vivo at 10 mg/kg [6]: 66.7%

NC(=O)OC(CCN1CCN(c2ccccc2)CC1)c1ccc(F)cc1 (centres undefined)
Activity [10]: Non-toxic | inhibition [11]: 65.5% | inhibition in vivo at 10 mg/kg [6]: 99% | TD50 [12]: 141 mg/kg | half-life [5]: 18 min | inhibition [13]: 84.7%

COc1ccc(N2CCN(CCC(OC(N)=O)c3ccccc3)CC2)cc1 (racemic)
ED50 [2]: 0.14 mg/kg | IC50 [4]: 1980 nM | TD50 [12]: 122 mg/kg | inhibition in vivo at 10 mg/kg [7]: 72% | half-life [5]: 124 min

NC(=O)OC(CCN1CCN(c2ccccc2)CC1)c1ccccc1 (racemic)
ED50 [2]: 0.49 mg/kg | TD50 [12]: 124 mg/kg | half-life [5]: 19 min | TD50 [14]: 52.3 mg/kg

COc1ccc(N2CCN(CCC(OC(N)=O)c3ccc(Cl)cc3)CC2)cc1 (single isomer, unassigned)
inhibition in vivo at 10 mg/kg [7]: 51%

COc1ccc(N2CCN(CCC(OC(N)=O)c3ccc(Cl)c(Cl)c3)CC2)cc1 (single isomer, unassigned)
inhibition in vivo at 10 mg/kg [7]: 61%

COc1ccc(N2CCN(CCC(OC(N)=O)c3ccc(C)c(C)c3)CC2)cc1 (single isomer, unassigned)
inhibition in vivo at 10 mg/kg [7]: 58%

COc1ccc(N2CCN(CCC(OC(N)=O)c3ccc(Cl)cc3Cl)CC2)cc1 (single isomer, unassigned)
inhibition in vivo at 10 mg/kg [7]: 16%

COc1ccc(N2CCN(CCC(OC(N)=O)c3ccc(Cl)c(C(F)(F)F)c3)CC2)cc1 (single isomer, unassigned)
inhibition in vivo at 10 mg/kg [7]: 46%

COc1ccc(N2CCN(CCC(OC(N)=O)c3ccc(C)cc3C)CC2)cc1 (single isomer, unassigned)
inhibition in vivo at 10 mg/kg [7]: 62%

Cc1ccc(C(CCN2CCN(c3ccccc3)CC2)OC(N)=O)cc1 (single isomer, unassigned)
inhibition [11]: 59.6% | inhibition in vivo at 10 mg/kg [6]: 100% | inhibition [13]: 85.6%

NC(=O)OC(CCN1CCN(c2ccccc2Cl)CC1)c1ccccc1 (single isomer, unassigned)
IC50 [3]: > 100000 nM | IC50 [4]: 52500 nM

NC(=O)OC(CCN1CCN(c2ccccc2F)CC1)c1ccccc1 (single isomer, unassigned)
TD50 [14]: 44.7 mg/kg

Cc1ccccc1N1CCN(CCC(OC(N)=O)c2ccccc2)CC1 (single isomer, unassigned)
IC50 [3]: 78.3 nM | IC50 [4]: 149 nM

COc1ccccc1N1CCN(CCC(OC(N)=O)c2ccccc2)CC1 (single isomer, unassigned)
Activity [15]: Toxic | ED50 [2]: 0.67 mg/kg

COc1cccc(N2CCN(CCC(OC(N)=O)c3ccccc3)CC2)c1 (single isomer, unassigned)
inhibition in vivo at 10 mg/kg [6]: 55%
